Assay [1] addresses T1, KRAS(G12D)/SOS1 (Homo sapiens, UniProt P01116, G12D).
T1 construct: purchased Cisbio 63ADK000CB16PEG
In words: KRAS(G12D)/SOS1 homogeneous time-resolved fluorescence (HTRF) assay. The format is binding. To be noted: absence of GTP, 4° C. for 3 hr. The procedure:
The test compound was mixed and incubated with reaction components, incubated in a sealed plate at 4° C. for 3 hr and fluorescence was measured using a PerkinElmer Envision plate reader.
On the technique in general: In TR-FRET formats the signal depends on donor and acceptor labels being close together.

Assay [2] relates to AsPC-1 human pancreatic adenocarcinoma. Nature of the assay: CellTiter-Glo cancer cell line proliferation assay, AsPC-1. The format is cell-based. To be noted: Homo sapiens, ASPC1, 24 hr. In a few lines: (§1)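 Cells plated at 4,000/well, grown 24 h at 37 °C/5% CO2, then exposed to compound concentration series (0.5% DMSO final) for 24 h. Viability read by CellTiter-Glo luminescence; IC50 values calculated.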
For orientation: ATP-based viability assays read luminescence as a measure of living cells.

Assay [3] has as its target BA/F3-KRAS(G12D) murine pro-B cell line stably expressing KRAS(G12D) (Homo sapiens, UniProt P01116, G12D, cells depend on it). In words: CellTiter-Glo cancer cell line proliferation assay, BA/F3-KRAS(G12D). It counts as cell-based. To be noted: 24 hr, read-out: BAF3 at 24 hrs, IC50. In short, it runs like this: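 BA/F3 cells expressing KRAS(G12D), 4,000/well in RPMI 1640 + 10% FCS, exposed 24 h at 37 °C to 3-fold dilutions (20 μM to 1.02 nM, 0.5% DMSO). Viability by CellTiter-Glo luminescence; IC50 calculated from the dose-response.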

For assay [4], the system named is A-427 human lung carcinoma. Nature of the assay: CellTiter-Glo cancer cell line proliferation assay, A-427. The format is cell-based. The conditions noted are these: Homo sapiens, A-427, 24 hr, read-out: A427 at 24 hrs, IC50. In a few lines:
as §1

Where a name gives a salt, the structure may show the parent alone.

BA/F3-KRAS(G12D) murine pro-B cell line stably expressing KRAS(G12D), sequence (P01116 whole entry G12D): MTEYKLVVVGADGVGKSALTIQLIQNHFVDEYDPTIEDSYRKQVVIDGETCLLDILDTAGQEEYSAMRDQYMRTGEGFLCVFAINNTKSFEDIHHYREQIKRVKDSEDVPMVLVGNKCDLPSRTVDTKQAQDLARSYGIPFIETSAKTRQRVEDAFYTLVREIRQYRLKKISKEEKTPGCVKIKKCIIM
T1 sequence (P01116 1-188 isoform P01116-2 G12D): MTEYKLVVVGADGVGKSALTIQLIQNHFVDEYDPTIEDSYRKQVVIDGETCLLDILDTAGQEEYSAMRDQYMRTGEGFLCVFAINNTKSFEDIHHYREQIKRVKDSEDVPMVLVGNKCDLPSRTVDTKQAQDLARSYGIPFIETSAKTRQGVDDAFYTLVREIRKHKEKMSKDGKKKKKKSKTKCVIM

For the compound `C#Cc1cccc2cccc(-c3ncc4c(N5CC6CCC(C5)N6)nc(OCCN5CCN(C(=O)C6CCN(c7ccc8c(c7)CN(C7CCC(=O)NC7=O)C8=O)CC6)CC5)nc4c3F)c12` (stereo not shown) [Compound 17, 3-(5-(4-(4-(2-((4-(3,8-diazabicyclo[3.2.1]octan-3-yl)-7-(8-ethynylnaphthalen-1-yl)-8-fluoropyrido[4,3-d]pyrimidin-2-yl)oxy)ethyl)piperazine-1-carbonyl)piperidin-1-yl)-1-oxoisoindolin-2-yl)piperidine-2,6-dione formate], the IC50 (commonly the point on the concentration scale where inhibition reaches its midpoint) in assay [1] was less than 100 nM; in assay [2] it was greater than 1000 nM; in assay [4], greater than 1000 nM. For the same compound, the GI50 in assay [3] was greater than 1000 nM.
As to `CN1C[C@@H](N2CCC(C(=O)N3CCN(c4ccc5c(c4)C(=O)N(C4CCC(=O)NC4=O)C5=O)CC3)CC2)C[C@H]1COc1nc(N2CC3CCC(C2)N3)c2cnc(-c3cccc4cccc(Cl)c34)c(F)c2n1` (stereo partly drawn) [Compound 9, 5-(4-(1-((3S,5S)-5-(((4-(3,8-diazabicyclo[3.2.1]octan-3-yl)-7-(8-chloronaphthalen-1-yl)-8-fluoropyrido[4,3-d]pyrimidin-2-yl)oxy)methyl)-1-methylpyrrolidin-3-yl)piperidine-4-carbonyl)piperazin-1-yl)-2-(2,6-dioxopiperidin-3-yl)isoindoline-1,3-dione hydrochloride], the IC50 is less than 100 nM in assay [1], greater than 1000 nM in assay [2] and greater than 1000 nM in assay [4]. In addition, in assay [3], the GI50 was greater than 1000 nM.
Consider `CN1C[C@@H](N2CCC(C(=O)Nc3ccc4c(c3)C(=O)N(C3CCC(=O)NC3=O)C4=O)CC2)C[C@H]1COc1nc(N2CC3CCC(C2)N3)c2cnc(-c3cccc4cccc(Cl)c34)c(F)c2n1` (stereo partly drawn) [Compound 10, 1-((3S,5S)-5-(((4-(3,8-diazabicyclo[3.2.1]octan-3-yl)-7-(8-chloronaphthalen-1-yl)-8-fluoropyrido[4,3-d]pyrimidin-2-yl)oxy)methyl)-1-methylpyrrolidin-3-yl)-N-(2-(2,6-dioxopiperidin-3-yl)-1,3-dioxoisoindolin-5-yl)piperidine-4-carboxamide formate], for which the values for the IC50 in assay [1], in assay [2] and in assay [4] were less than 100 nM, greater than 1000 nM and greater than 1000 nM, respectively. In addition, the GI50 in assay [3] was greater than 1000 nM.
Take `C#Cc1cccc2cccc(-c3ncc4c(N5CC6CCC(C5)N6)nc(OC[C@@H]5C[C@H](N6CCN(C(=O)C7CCN(c8ccc9c(c8)C(=O)N(C8CCC(=O)NC8=O)C9=O)CC7)CC6)CN5C)nc4c3F)c12` (stereo partly drawn) [Compound 8, 5-(4-(4-((3S,5S)-5-(((4-(3,8-diazabicyclo[3.2.1]octan-3-yl)-7-(8-ethynylnaphthalen-1-yl)-8-fluoropyrido[4,3-d]pyrimidin-2-yl)oxy)methyl)-1-methylpyrrolidin-3-yl)piperazine-1-carbonyl)piperidin-1-yl)-2-(2,6-dioxopiperidin-3-yl)isoindoline-1,3-dione hydrochloride]: the IC50 was less than 100 nM in assay [1], greater than 1000 nM in assay [2] and greater than 1000 nM in assay [4]. Also, the GI50 in assay [3] is greater than 1000 nM.
On to `Cc1ncsc1-c1ccc(CNC(=O)[C@@H]2C[C@@H](O)CN2C(=O)[C@@H](NC(=O)CCNC(=O)C2CCN([C@H]3C[C@@H](COc4nc(N5CC6CCC(C5)N6)c5cnc(-c6cccc7cccc(Cl)c67)c(F)c5n4)N(C)C3)CC2)C(C)(C)C)cc1` [Compound 27, 1-((3S,5S)-5-(((4-(3,8-diazabicyclo[3.2.1]octan-3-yl)-7-(8-chloronaphthalen-1-yl)-8-fluoropyrido[4,3-d]pyrimidin-2-yl)oxy)methyl)-1-methylpyrrolidin-3-yl)-N-(3-(((S)-1-((2S,4R)-4-hydroxy-2-((4-(4-methylthiazol-5-yl)benzyl)carbamoyl)pyrrolidin-1-yl)-3,3-dimethyl-1-oxobutan-2-yl)amino)-3-oxopropyl)piperidine-4-carboxamide formate], for which the results for the concentration for half-maximal inhibition (IC50) in assay [1], in assay [2] and in assay [4] were 100 to 1000 nM, greater than 1000 nM and greater than 1000 nM, respectively. In addition, the GI50 in assay [3] was greater than 1000 nM.
Turning to `Cc1ncsc1-c1ccc(CNC(=O)[C@@H]2C[C@@H](O)CN2C(=O)[C@@H](NC(=O)C2CCN([C@H]3C[C@@H](COc4nc(N5CC6CCC(C5)N6)c5cnc(-c6cccc7ccccc67)c(F)c5n4)N(C)C3)CC2)C(C)(C)C)cc1` [Compound 23, 1-((3S,5S)-5-(((4-(3,8-diazabicyclo[3.2.1]octan-3-yl)-8-fluoro-7-(naphthalen-1-yl)pyrido[4,3-d]pyrimidin-2-yl)oxy)methyl)-1-methylpyrrolidin-3-yl)-N—((S)-1-((2S,4R)-4-hydroxy-2-((4-(4-methylthiazol-5-yl)benzyl)carbamoyl)pyrrolidin-1-yl)-3,3-dimethyl-1-oxobutan-2-yl)piperidine-4-carboxamide formate], the IC50 in assay [1], in assay [2] and in assay [4] was greater than 1000 nM in each case. The GI50 in assay [3] is greater than 1000 nM.
Regarding `CN1C[C@@H](N2CCC(C(=O)Nc3ccc4c(c3)C(=O)N(C3CCC(=O)NC3=O)C4=O)CC2)C[C@H]1COc1nc(N2CC3CCC(C2)N3)c2cnc(-c3cccc4ccccc34)c(F)c2n1` (stereo partly drawn) [Compound 25, 1-((3S,5S)-5-(((4-(3,8-diazabicyclo[3.2.1]octan-3-yl)-8-fluoro-7-(naphthalen-1-yl)pyrido[4,3-d]pyrimidin-2-yl)oxy)methyl)-1-methylpyrrolidin-3-yl)-N-(2-(2,6-dioxopiperidin-3-yl)-1,3-dioxoisoindolin-5-yl)piperidine-4-carboxamide formate], the IC50 in assay [1] is less than 100 nM; in assay [2] it was greater than 1000 nM; in assay [4] it was greater than 1000 nM. Further, in assay [3], the GI50 is greater than 1000 nM.

The values are drawn from patent publication US20250018047A1, “METHODS AND COMPOSITIONS FOR TARGETED PROTEIN DEGRADATION” (Ranok Therapeutics (Hangzhou) Co. Ltd., priority 2021, published 2025).
